According to the supplement of paper PMC10307832:

Columns and labels:
Experiment in all cases: relative viability (nuclei count vs DMSO), 5 days (fraction); higher = more cells survive
SW 900 = test system: SW 900
Procedure, shortened: (§1)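 For relative viability, nuclei counts in treated wells were divided by those in vehicle wells. Lung cancer cell lines had been pin-tool dosed in 1536-well plates the day after seeding and cultured for 5 days, then fixed and stained in one step (final 0.05% Triton X-100, 1% formaldehyde, 1 ug/ml Hoechst) and imaged at 4×. Doses were one drug alone or a fixed anchor-drug dose plus five library-drug doses (not always all listed) in √10 steps, and values are duplicate-plate medians.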

NCI-H1792 = test system: NCI-H1792
Procedure, shortened: as §1

NCI-H1437 = test system: NCI-H1437
Procedure, shortened: as §1

NCI-H596 = test system: NCI-H596
Procedure, shortened: as §1

NCI-H1650 = test system: NCI-H1650
Procedure, shortened: as §1

NCI-H650 = test system: NCI-H650
Procedure, shortened: as §1

HCC-15 = test system: HCC-15
Procedure, shortened: as §1

A-427 = test system: A-427
Procedure, shortened: as §1

NCI-H2342 = test system: NCI-H2342
Procedure, shortened: as §1

EKVX = test system: EKVX
Procedure, shortened: as §1

NCI-H838 = test system: NCI-H838
Procedure, shortened: as §1

HCC-44 = test system: HCC-44
Procedure, shortened: as §1

COR-L23 = test system: COR-L23
Procedure, shortened: as §1

NCI-H1975 = test system: NCI-H1975
Procedure, shortened: as §1

BEN = test system: BEN
Procedure, shortened: as §1

HCC-827 = test system: HCC-827
Procedure, shortened: as §1

201T = test system: 201T
Procedure, shortened: as §1

SK-MES-1 = test system: SK-MES-1
Procedure, shortened: as §1

HARA = test system: HARA
Procedure, shortened: as §1

NCI-H23 = test system: NCI-H23
Procedure, shortened: as §1

NCI-H441 = test system: NCI-H441
Procedure, shortened: as §1

NCI-H358 = test system: NCI-H358
Procedure, shortened: as §1

Compound: Cc1sc2c(c1C)C(c1ccc(Cl)cc1)=N[C@@H](CC(=O)OC(C)(C)C)c1nnc(C)n1-2 [JQ1] + N=C(N)NC(=N)NCCc1ccccc1 [Phenformin] (partner 250 µM)
- relative viability (SW 900; first compound 0.04 µM): 0.462
- relative viability (SW 900; first compound 0.1265 µM): 0.519
- relative viability (SW 900; first compound 0.4 µM): 0.285
- relative viability (SW 900; first compound 1.265 µM): 0.187
- relative viability (SW 900; first compound 4 µM): 0.139
- relative viability (NCI-H1792; first compound 0.04 µM): 0.323
- relative viability (NCI-H1792; first compound 0.1265 µM): 0.19
- relative viability (NCI-H1792; first compound 0.4 µM): 0.232
- relative viability (NCI-H1792; first compound 1.265 µM): 0.106
- relative viability (NCI-H1792; first compound 4 µM): 0.0948
- relative viability (NCI-H1437; first compound 0.04 µM): 0.274
- relative viability (NCI-H1437; first compound 0.1265 µM): 0.267
- relative viability (NCI-H1437; first compound 0.4 µM): 0.279
- relative viability (NCI-H1437; first compound 1.265 µM): 0.222
- relative viability (NCI-H1437; first compound 4 µM): 0.271
- relative viability (NCI-H596; first compound 0.04 µM): 0.702
- relative viability (NCI-H596; first compound 0.1265 µM): 0.812
- relative viability (NCI-H596; first compound 0.4 µM): 0.829
- relative viability (NCI-H596; first compound 1.265 µM): 0.374
- relative viability (NCI-H596; first compound 4 µM): 0.348
- relative viability (NCI-H1650; first compound 0.04 µM): 0.309
- relative viability (NCI-H1650; first compound 0.1265 µM): 0.304
- relative viability (NCI-H1650; first compound 0.4 µM): 0.182
- relative viability (NCI-H1650; first compound 1.265 µM): 0.118
- relative viability (NCI-H1650; first compound 4 µM): 0.137
- relative viability (NCI-H650; first compound 0.04 µM): 0.418
- relative viability (NCI-H650; first compound 0.1265 µM): 0.358
- relative viability (NCI-H650; first compound 0.4 µM): 0.313
- relative viability (NCI-H650; first compound 1.265 µM): 0.273
- relative viability (NCI-H650; first compound 4 µM): 0.25
- relative viability (HCC-15; first compound 0.04 µM): 0.458
- relative viability (HCC-15; first compound 0.4 µM): 0.318
- relative viability (HCC-15; first compound 1.265 µM): 0.189
- relative viability (HCC-15; first compound 4 µM): 0.19
- relative viability (A-427; first compound 0.04 µM): 0.315
- relative viability (A-427; first compound 0.1265 µM): 0.241
- relative viability (A-427; first compound 0.4 µM): 0.341
- relative viability (A-427; first compound 1.265 µM): 0.276
- relative viability (A-427; first compound 4 µM): 0.228
- relative viability (NCI-H2342; first compound 0.04 µM): 0.604
- relative viability (NCI-H2342; first compound 0.1265 µM): 0.57
- relative viability (NCI-H2342; first compound 0.4 µM): 0.694
- relative viability (NCI-H2342; first compound 1.265 µM): 0.809
- relative viability (NCI-H2342; first compound 4 µM): 0.663
- relative viability (EKVX; first compound 0.04 µM): 0.257
- relative viability (EKVX; first compound 0.1265 µM): 0.257
- relative viability (EKVX; first compound 0.4 µM): 0.27
- relative viability (EKVX; first compound 1.265 µM): 0.243
- relative viability (EKVX; first compound 4 µM): 0.218
- relative viability (NCI-H838; first compound 0.04 µM): 0.554
- relative viability (NCI-H838; first compound 0.1265 µM): 0.285
- relative viability (NCI-H838; first compound 0.4 µM): 0.372
- relative viability (NCI-H838; first compound 1.265 µM): 0.253
- relative viability (NCI-H838; first compound 4 µM): 0.17
- relative viability (HCC-44; first compound 0.04 µM): 0.201
- relative viability (HCC-44; first compound 0.1265 µM): 0.184
- relative viability (HCC-44; first compound 0.4 µM): 0.161
- relative viability (HCC-44; first compound 1.265 µM): 0.125
- relative viability (HCC-44; first compound 4 µM): 0.111
- relative viability (COR-L23; first compound 0.04 µM): 0.385
- relative viability (COR-L23; first compound 0.1265 µM): 0.351
- relative viability (COR-L23; first compound 0.4 µM): 0.428
- relative viability (COR-L23; first compound 1.265 µM): 0.222
- relative viability (COR-L23; first compound 4 µM): 0.227
- relative viability (NCI-H1975; first compound 0.04 µM): 0.41
- relative viability (NCI-H1975; first compound 0.1265 µM): 0.31
- relative viability (NCI-H1975; first compound 0.4 µM): 0.381
- relative viability (NCI-H1975; first compound 1.265 µM): 0.299
- relative viability (NCI-H1975; first compound 4 µM): 0.297
- relative viability (BEN; first compound 0.04 µM): 0.273
- relative viability (BEN; first compound 0.1265 µM): 0.296
- relative viability (BEN; first compound 0.4 µM): 0.303
- relative viability (BEN; first compound 1.265 µM): 0.309
- relative viability (BEN; first compound 4 µM): 0.215
- relative viability (HCC-827; first compound 0.04 µM): 0.395
- relative viability (HCC-827; first compound 0.4 µM): 0.349
- relative viability (HCC-827; first compound 1.265 µM): 0.468
- relative viability (HCC-827; first compound 4 µM): 0.449
- relative viability (201T; first compound 0.04 µM): 0.47
- relative viability (201T; first compound 0.1265 µM): 0.415
- relative viability (201T; first compound 0.4 µM): 0.408
- relative viability (201T; first compound 1.265 µM): 0.377
- relative viability (201T; first compound 4 µM): 0.344
- relative viability (SK-MES-1; first compound 0.04 µM): 0.672
- relative viability (SK-MES-1; first compound 0.1265 µM): 0.496
- relative viability (SK-MES-1; first compound 0.4 µM): 0.428
- relative viability (SK-MES-1; first compound 1.265 µM): 0.307
- relative viability (SK-MES-1; first compound 4 µM): 0.199
- relative viability (HARA; first compound 0.04 µM): 0.465
- relative viability (HARA; first compound 0.1265 µM): 0.236
- relative viability (HARA; first compound 0.4 µM): 0.484
- relative viability (HARA; first compound 1.265 µM): 0.173
- relative viability (HARA; first compound 4 µM): 0.186
- relative viability (NCI-H23; first compound 0.04 µM): 0.749
- relative viability (NCI-H23; first compound 0.1265 µM): 0.768
- relative viability (NCI-H23; first compound 0.4 µM): 0.812
- relative viability (NCI-H23; first compound 1.265 µM): 0.414
- relative viability (NCI-H23; first compound 4 µM): 0.592
- relative viability (NCI-H441; first compound 0.04 µM): 0.728
- relative viability (NCI-H441; first compound 0.1265 µM): 0.778
- relative viability (NCI-H441; first compound 0.4 µM): 0.681
- relative viability (NCI-H441; first compound 1.265 µM): 0.388
- relative viability (NCI-H441; first compound 4 µM): 0.289
- relative viability (NCI-H358; first compound 0.04 µM): 0.355
- relative viability (NCI-H358; first compound 0.1265 µM): 0.335
- relative viability (NCI-H358; first compound 0.4 µM): 0.361
- relative viability (NCI-H358; first compound 1.265 µM): 0.198
- relative viability (NCI-H358; first compound 4 µM): 0.161
